Data: article PMC10143822, “Structural Adaptation of the Single-Stranded DNA-Binding Protein C-Terminal to DNA Metabolizing Partners Guides Inhibitor Design” (Pharmaceutics, 2023)
Where a SMILES comes first, the peptide text is derived from it. Where no end group is shown, it is not given here. [ ]: non-standard residue; d: D form. Phe(3-Cl) = N[C@@H](Cc1cccc(Cl)c1)C(=O)O; Phe(4-Cl) = N[C@@H](Cc1ccc(Cl)cc1)C(=O)O; Phe(4-F) = N[C@@H](Cc1ccc(F)cc1)C(=O)O; NMeI = CC[C@H](C)[C@H](NC)C(=O)O; 3Pal = N[C@@H](Cc1cccnc1)C(=O)O; NMeD = CN[C@@H](CC(=O)O)C(=O)O; β3hD = NC(CC(=O)O)CC(=O)O; Aib = CC(C)(N)C(=O)O

Legend:
RecO = molecular target: T1, RecO (Escherichia coli, UniProt P0A7H3); test: biochemical; type: binding; conditions: 0.5 μM RecO, 50 nM F-wtSSB tracer, 0–500 μM unlabeled peptide, 30 min room temperature; 20 mM Tris-HCl pH 8.0, 200 mM NaCl, 10% glycerol, 0.01% Triton-X 100; 25 °C; triplicate; read-out: IC50 on RecO, competitive fluorescence anisotropy
T1 construct: His-tag (TEV site) (N, cleaved yes); made in house; host or cells: E. coli Rosetta cells
T1 sequence (P0A7H3 whole entry): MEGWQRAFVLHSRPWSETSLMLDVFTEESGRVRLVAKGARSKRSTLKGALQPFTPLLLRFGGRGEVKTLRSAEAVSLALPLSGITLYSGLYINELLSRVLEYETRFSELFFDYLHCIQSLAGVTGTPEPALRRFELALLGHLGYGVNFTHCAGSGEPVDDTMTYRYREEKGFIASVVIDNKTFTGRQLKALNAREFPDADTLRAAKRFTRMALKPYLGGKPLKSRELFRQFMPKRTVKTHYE
Method: (§1) Triplicate measurements were performed using a Clariostar Plus Microplate Reader in 384-well plates for all fluorescence anisotropy (FA) experiments. The settings were 25 °C, excitation at 485 nm, emission at 510 nm, settling time of 0.2 s, and 200 flashes per well.
(§2) Competition fluorescence anisotropy experiments were carried out as follows: protein (0.5 μM either ExoI or RecO) was incubated with 50 nM F-wtSSB peptide and 0–500 μM unlabeled wtSSB (or a variant) peptide for 30 min at room temperature. For direct fluorescence anisotropy measurements, 16 µM ExoI and 7.5 µM RecO were used in the first well. After serial dilution, either 50 nM of F-mSSB or F-sSSB was added to the wells and then incubated for 30 min. Buffers used included 20 mM Tris-HCl (pH 8.0), 100 mM NaCl, 1 mM MgCl2, 1 mM 2-mercaptoethanol, 10% (v/v) glycerol, for ExoI and 20 mM Tris-HCl (pH 8.0), 200 mM NaCl, 1 mM 2-mercaptoethanol, 10% (v/v) glycerol, and 0.01% Triton-X 100 for RecO [37].
(§3) Fluorescence anisotropy values were normalized and are shown as bound fractions (BF, %). BF=r−rmin/λ(rmax−r)+r−rmin, I=2∗PG+S, r=S−PG/I, where r: anisotropy, I: total intensity, P: perpendicular intensity, S: parallel intensity, G: an instrument factor set to 1, BF: ligand fraction bound, and λ=λbound/λunbound=1 .
(§4) Competitive fluorescence anisotropy was analyzed in Origin Pro 9.5, and IC50 values were determined using the Logistic Nonlinear fit function and are shown as plots for each mutated position for each protein in Figures S4 and S6. EC50 values from direct fluorescence anisotropy titrations were plotted in Origin 9.5. Values were determined using the Logistics Nonlinear fit function.

ExoI = molecular target: T2, ExoI (Escherichia coli, UniProt P04995); test: biochemical; type: binding, E. coli
T2 construct: His-tag (cleaved yes); host or cells: E. coli BL21 (DE3) pLysS
T2 sequence (P04995 whole entry): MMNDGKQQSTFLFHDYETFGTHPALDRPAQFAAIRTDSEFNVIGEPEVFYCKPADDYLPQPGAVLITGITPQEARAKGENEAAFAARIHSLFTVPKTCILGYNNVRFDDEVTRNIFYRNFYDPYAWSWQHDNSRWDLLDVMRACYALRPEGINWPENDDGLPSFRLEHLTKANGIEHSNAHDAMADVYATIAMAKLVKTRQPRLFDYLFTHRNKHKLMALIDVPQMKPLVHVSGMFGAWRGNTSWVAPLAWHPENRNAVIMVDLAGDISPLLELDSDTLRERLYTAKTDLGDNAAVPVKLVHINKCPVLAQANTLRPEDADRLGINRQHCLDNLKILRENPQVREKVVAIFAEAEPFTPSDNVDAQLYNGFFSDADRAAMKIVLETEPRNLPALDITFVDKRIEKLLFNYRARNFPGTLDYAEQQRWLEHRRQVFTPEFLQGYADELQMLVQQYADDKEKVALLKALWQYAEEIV
Method: as §1, §2, §3, §4

**Q.** Which IC50 (RecO) does the source give for `CC[C@H](C)[C@H](NC(=O)[C@H](CC(=O)O)NC(=O)[C@H](CC(=O)O)NC(=O)[C@H](CC(=O)O)NC(=O)[C@H](Cc1ccccc1)NC(=O)C[C@H](CC(=O)O)NC(C)=O)C(=O)N1CCC[C@H]1C(=O)N[C@@H](Cc1ccccc1)C(=O)O` [β3-Asp1] (Ac-[β3hD]FDDDIPF-OH) here?
**A.** 8.03 ± 0.4 µM

**Q.** And the IC50 (ExoI)?
**A.** 4.47 ± 0.25 µM

**Q.** For `CC(=O)N[C@@H](CC(=O)O)C(=O)N[C@@H](Cc1ccccc1)C(=O)N[C@@H](CC(=O)O)C(=O)N[C@@H](CC(=O)O)C(=O)N[C@@H](CC(=O)O)C(=O)NC(C)(C)C(=O)N1CCC[C@H]1C(=O)N[C@@H](Cc1ccccc1)C(=O)O` [Aib6] (Ac-DFDDD[Aib]PF-OH), which IC50 (ExoI) is on record?
**A.** 27.6 ± 7.9 µM

**Q.** `CC[C@H](C)[C@H](NC(=O)[C@H](CC(=O)O)NC(=O)[C@H](CC(=O)O)NC(=O)[C@H](CC(=O)O)NC(=O)[C@H](Cc1ccc(F)cc1)NC(=O)[C@H](CC(=O)O)NC(C)=O)C(=O)N1CCC[C@H]1C(=O)N[C@@H](Cc1ccccc1)C(=O)O` [4-F-Phe2] (Ac-D[Phe(4-F)]DDDIPF-OH) was tested. Which IC50 (RecO) did it give?
**A.** 3.05 ± 0.28 µM

**Q.** For Ac-DFDDNIPF [Asn5], which IC50 (RecO) is on record?
**A.** 16 ± 0.51 µM

**Q.** And the IC50 (ExoI)?
**A.** 7.92 ± 0.62 µM

**Q.** Which results are given for `CC[C@H](C)[C@H](NC(=O)[C@H](CC(=O)O)NC(=O)[C@H](CC(=O)O)NC(=O)[C@H](CC(=O)O)NC(=O)[C@H](Cc1cccnc1)NC(=O)[C@H](CC(=O)O)NC(C)=O)C(=O)N1CCC[C@H]1C(=O)N[C@@H](Cc1ccccc1)C(=O)O` [3Pal2] (Ac-D[3Pal]DDDIPF-OH)?
**A.** IC50 (RecO): 11.7 ± 0.8 µM; IC50 (ExoI): 7.47 ± 0.88 µM

**Q.** Which IC50 (RecO) does the source give for `CC[C@H](C)[C@H](NC(=O)[C@H](CC(=O)O)N(C)C(=O)[C@H](CC(=O)O)NC(=O)[C@H](CC(=O)O)NC(=O)[C@H](Cc1ccccc1)NC(=O)[C@H](CC(=O)O)NC(C)=O)C(=O)N1CCC[C@H]1C(=O)N[C@@H](Cc1ccccc1)C(=O)O` [NM-Asp5] (Ac-DFDD[NMeD]IPF-OH) here?
**A.** 9.33 ± 4.3 µM

**Q.** And the IC50 (ExoI)?
**A.** 9.3 ± 0.66 µM

**Q.** Which IC50 (RecO) does the source give for Ac-DFDEDIPF [Glu4] here?
**A.** 5.68 ± 0.59 µM

**Q.** And the IC50 (ExoI)?
**A.** 3.58 ± 0.11 µM

**Q.** `CC[C@H](C)[C@@H](C(=O)N1CCC[C@H]1C(=O)N[C@@H](Cc1ccccc1)C(=O)O)N(C)C(=O)[C@H](CC(=O)O)NC(=O)[C@H](CC(=O)O)NC(=O)[C@H](CC(=O)O)NC(=O)[C@H](Cc1ccccc1)NC(=O)[C@H](CC(=O)O)NC(C)=O` [NM-Ile6] (Ac-DFDDD[NMeI]PF-OH) was tested. Which IC50 (ExoI) did it give?
**A.** 3.95 ± 0.54 µM

**Q.** With `CC[C@H](C)[C@H](NC(=O)[C@H](CC(=O)O)NC(=O)[C@H](CC(=O)O)NC(=O)[C@H](CC(=O)O)NC(=O)[C@H](Cc1cccc(Cl)c1)NC(=O)[C@H](CC(=O)O)NC(C)=O)C(=O)N1CCC[C@H]1C(=O)N[C@@H](Cc1ccccc1)C(=O)O` [3-Cl-Phe2] (Ac-D[Phe(3-Cl)]DDDIPF-OH) as the molecule, how does the IC50 (RecO) read?
**A.** 3.44 ± 0.14 µM

**Q.** What about the IC50 (ExoI) of the same molecule?
**A.** 2.03 ± 0.51 µM

**Q.** What does the source list for `CC[C@H](C)[C@H](NC(=O)[C@H](CC(=O)O)NC(=O)[C@H](CC(=O)O)NC(=O)C[C@H](CC(=O)O)NC(=O)[C@H](Cc1ccccc1)NC(=O)[C@H](CC(=O)O)NC(C)=O)C(=O)N1CCC[C@H]1C(=O)N[C@@H](Cc1ccccc1)C(=O)O` [β3-Asp3] (Ac-DF[β3hD]DDIPF-OH)?
**A.** IC50 (RecO): 8.92 ± 0.39 µM; IC50 (ExoI): 3.65 ± 0.16 µM

**Q.** For `CC[C@H](C)[C@H](NC(=O)[C@H](CC(=O)O)NC(=O)[C@H](CC(=O)O)NC(=O)[C@H](CC(=O)O)NC(=O)[C@H](Cc1ccccc1)NC(=O)[C@@H](CC(=O)O)NC(C)=O)C(=O)N1CCC[C@H]1C(=O)N[C@@H](Cc1ccccc1)C(=O)O` [D-Asp1] (Ac-[dD]FDDDIPF-OH), which IC50 (RecO) is on record?
**A.** 6.56 ± 1.4 µM

**Q.** What about the IC50 (ExoI) of the same molecule?
**A.** 5.55 ± 0.19 µM

**Q.** How did the IC50 (RecO) turn out when `CC(=O)N[C@@H](CC(=O)O)C(=O)N[C@@H](Cc1ccc(Cl)cc1)C(=O)N(C)[C@@H](CC(=O)O)C(=O)N[C@@H](CC(=O)O)C(=O)N[C@@H](CCC(=O)O)C(=O)N[C@@H](CC(C)C)C(=O)N1CCC[C@H]1C(=O)N[C@@H](Cc1cccc(Cl)c1)C(=O)O` [R1-sSSB-Ct] (Ac-D[Phe(4-Cl)][NMeD]DELP[Phe(3-Cl)]-OH) was run?
**A.** 3.33 µM

**Q.** For `CC[C@H](C)[C@H](NC(=O)[C@H](CC(=O)O)NC(=O)[C@H](CC(=O)O)N(C)C(=O)[C@H](CC(=O)O)NC(=O)[C@H](Cc1ccccc1)NC(=O)[C@H](CC(=O)O)NC(C)=O)C(=O)N1CCC[C@H]1C(=O)N[C@@H](Cc1ccccc1)C(=O)O` [NM-Asp4] (Ac-DFD[NMeD]DIPF-OH), which IC50 (RecO) is on record?
**A.** 3.85 ± 1.03 µM

**Q.** What about the IC50 (ExoI) of the same molecule?
**A.** 1.27 ± 0.14 µM

**Q.** What does the source list for `CC[C@H](C)[C@H](NC(=O)[C@H](CC(=O)O)NC(=O)[C@H](CC(=O)O)NC(=O)[C@@H](CC(=O)O)NC(=O)[C@H](Cc1ccccc1)NC(=O)[C@H](CC(=O)O)NC(C)=O)C(=O)N1CCC[C@H]1C(=O)N[C@@H](Cc1ccccc1)C(=O)O` [D-Asp3] (Ac-DF[dD]DDIPF-OH)?
**A.** IC50 (RecO): 4.56 ± 1.53 µM; IC50 (ExoI): 6.82 ± 0.53 µM
